This note sets out measurements from patent US12098176B2, “Keratin BD-4, preparation method, and pharmaceutical composition and use thereof” (Institute of Materia Medica, Chinese Academy of Medical …, priority 2019, dated 2024).

For this assay, the system named is phenol red excretion in mice. The assay is described as follows: Expectorant test, phenol red excretion method in mice. The format is in vivo, mouse. Here is the method: Experimental example 5 The pharmacodynamic test of protein BD-4 (Example 4 protein) on the expectorant of phenol red excretion method in mice.
• Solvent control group; • Mucosultan 30 mg/kg group; • Protein BD-4, 20 mg/kg group, 50 mg/kg group. Method: Model Preparation and Administration:
The animals were fasted and watered 16 hours before the experiment. Orally administered Mucosultan and different doses of protein BD-4 (administration volume 10 ml/kg) in groups, and the solvent control group was given the same volume of distilled water. One hour later, 2.5% phenol red solution was injected intraperitoneally, Kill the mouse by removing the neck after 30 minutes. Take the trachea from below the thyroid cartilage to the branch of the trachea. Put the trachea into 3 ml 5% NaHCO3 solution and let it stand for 3 hours. Take 1 ml of the supernatant and centrifuge at 3000 rpm for 5 minutes. Measure and record the absorbance at 546 nm. According to the standard curve of phenol red, the excretion of phenol red was calculated.
Record the time point of oral administration, the time point of intraperitoneal injection of 2.5% phenol red solution, and the time point of tracheal extraction respectively; The absorbance of each group of samples was measured by the microplate reader at 546 nm, Calculate the excretion of phenol red according to the standard curve of phenol red. […]

SMILES strings stand for the structures. Structures can show the parent of a compound that is named as a salt.

`Nc1c(Br)cc(Br)cc1CN[C@H]1CC[C@H](O)CC1` [Mucosolvan, ambroxol hydrochloride, reference compound] gave a Phenol red excretion (Mucosolvan 30 mg/kg oral, X ± SEM) of 1.138 ± 0.079 µg/mL. Moreover, the “Phenol red excretion vs solvent control group” value (Mucosultan 30 mg/kg, P<0.05) is on record as “significantly increased”.
